Measurements taken from ChEMBL document CHEMBL1909046, “DrugMatrix in vitro pharmacology data”.

Tests used:
[1] = target: C-C chemokine receptor type 5 (Homo sapiens, UniProt P51681); format: cell membranes, Membrane; settings: hek293; also: in other assays of this panel Not Active means under 50% inhibition at 10 µM
[2] = target: Beta-3 adrenergic receptor (Homo sapiens, UniProt P13945); test: DRUGMATRIX: Adrenergic beta3 radioligand binding (ligand: [125I] Cyanopindolol); format: cell membranes, HEK293, Membrane; settings: hek293; Not Active = under 50% inhibition at 10 µM
Sequence of Beta-3 adrenergic receptor (P13945 whole entry): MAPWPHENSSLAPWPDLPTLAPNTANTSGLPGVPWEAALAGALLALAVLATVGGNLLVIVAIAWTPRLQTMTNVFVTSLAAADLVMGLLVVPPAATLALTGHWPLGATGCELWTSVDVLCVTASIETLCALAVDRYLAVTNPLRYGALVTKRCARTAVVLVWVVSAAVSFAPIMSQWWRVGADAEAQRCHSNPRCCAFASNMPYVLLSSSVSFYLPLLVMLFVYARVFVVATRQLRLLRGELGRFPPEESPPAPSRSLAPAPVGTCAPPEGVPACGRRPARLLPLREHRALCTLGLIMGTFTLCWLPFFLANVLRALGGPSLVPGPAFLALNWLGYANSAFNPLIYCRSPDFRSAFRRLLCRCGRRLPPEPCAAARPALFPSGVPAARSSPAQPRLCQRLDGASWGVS

[3] = target: T1, Amine oxidase [flavin-containing] A (Homo sapiens, UniProt P21397); test: DRUGMATRIX: Monoamine Oxidase MAO-A enzyme inhibition (substrate: Kynuramine); parameters: species or system BTI-TN-5B1-4; settings: bti-tn-5b1-4; Not Active = under 50% inhibition at 10 µM
T1 sequence (P21397 whole entry): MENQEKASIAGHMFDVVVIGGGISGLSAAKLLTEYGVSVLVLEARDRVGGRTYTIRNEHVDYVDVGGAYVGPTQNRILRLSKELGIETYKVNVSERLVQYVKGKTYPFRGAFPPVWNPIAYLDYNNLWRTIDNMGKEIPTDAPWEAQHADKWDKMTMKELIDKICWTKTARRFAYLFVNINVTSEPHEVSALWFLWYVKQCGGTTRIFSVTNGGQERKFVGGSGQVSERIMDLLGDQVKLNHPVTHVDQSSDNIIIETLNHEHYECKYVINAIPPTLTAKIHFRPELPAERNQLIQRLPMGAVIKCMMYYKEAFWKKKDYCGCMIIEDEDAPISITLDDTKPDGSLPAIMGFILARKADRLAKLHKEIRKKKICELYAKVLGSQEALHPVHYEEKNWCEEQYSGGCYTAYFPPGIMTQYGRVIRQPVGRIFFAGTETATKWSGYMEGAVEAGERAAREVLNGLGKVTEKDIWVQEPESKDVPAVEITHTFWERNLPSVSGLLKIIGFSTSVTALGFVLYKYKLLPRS

[4] = target: T2, Muscarinic acetylcholine receptor M2 (Homo sapiens, UniProt P08172); format: cell membranes, CHO-K1, Membrane; settings: cho-k1; also: in other assays of this panel Not Active means under 50% inhibition at 10 µM
T2 sequence (P08172 whole entry): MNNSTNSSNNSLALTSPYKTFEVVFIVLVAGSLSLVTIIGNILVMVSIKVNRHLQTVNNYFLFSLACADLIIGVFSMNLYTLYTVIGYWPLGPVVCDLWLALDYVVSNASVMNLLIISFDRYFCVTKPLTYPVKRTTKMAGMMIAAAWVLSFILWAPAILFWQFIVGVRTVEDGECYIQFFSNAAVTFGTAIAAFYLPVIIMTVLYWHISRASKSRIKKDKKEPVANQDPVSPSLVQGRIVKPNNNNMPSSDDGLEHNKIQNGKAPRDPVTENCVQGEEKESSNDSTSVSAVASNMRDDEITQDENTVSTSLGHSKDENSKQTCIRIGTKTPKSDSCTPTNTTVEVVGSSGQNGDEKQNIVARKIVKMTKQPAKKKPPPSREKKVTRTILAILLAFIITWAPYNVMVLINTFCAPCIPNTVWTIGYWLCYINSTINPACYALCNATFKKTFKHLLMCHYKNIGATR

Cytochrome P450 2C9 = Cytochrome P450 2C9 (Homo sapiens, UniProt P11712); settings: bti-tn-5b1-4; also: in other assays of this panel Not Active means under 50% inhibition at 10 µM
Sequence of Cytochrome P450 2C9 (P11712 whole entry): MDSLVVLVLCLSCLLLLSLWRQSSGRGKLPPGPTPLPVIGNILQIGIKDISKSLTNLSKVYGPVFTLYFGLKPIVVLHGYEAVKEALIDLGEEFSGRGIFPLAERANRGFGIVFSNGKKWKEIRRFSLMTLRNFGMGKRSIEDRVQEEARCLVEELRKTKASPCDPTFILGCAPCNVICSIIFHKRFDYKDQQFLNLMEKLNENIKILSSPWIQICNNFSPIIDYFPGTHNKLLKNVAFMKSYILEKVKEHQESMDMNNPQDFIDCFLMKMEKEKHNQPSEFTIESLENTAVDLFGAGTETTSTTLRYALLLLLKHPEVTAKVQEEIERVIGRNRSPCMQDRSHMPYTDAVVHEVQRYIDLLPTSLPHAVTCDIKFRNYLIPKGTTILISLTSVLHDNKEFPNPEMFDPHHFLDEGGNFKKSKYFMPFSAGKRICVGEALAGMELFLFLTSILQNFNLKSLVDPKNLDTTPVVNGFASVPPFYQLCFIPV

[5] = target: T3, 5-hydroxytryptamine receptor 2C (Homo sapiens, UniProt P28335); test: DRUGMATRIX: Serotonin (5-Hydroxytryptamine) 5-HT2C radioligand binding (ligand: [3H] Mesulergine); format: cell membranes, CHO-K1, Membrane; settings: cho-k1; Not Active = under 50% inhibition at 10 µM
T3 sequence (P28335 whole entry): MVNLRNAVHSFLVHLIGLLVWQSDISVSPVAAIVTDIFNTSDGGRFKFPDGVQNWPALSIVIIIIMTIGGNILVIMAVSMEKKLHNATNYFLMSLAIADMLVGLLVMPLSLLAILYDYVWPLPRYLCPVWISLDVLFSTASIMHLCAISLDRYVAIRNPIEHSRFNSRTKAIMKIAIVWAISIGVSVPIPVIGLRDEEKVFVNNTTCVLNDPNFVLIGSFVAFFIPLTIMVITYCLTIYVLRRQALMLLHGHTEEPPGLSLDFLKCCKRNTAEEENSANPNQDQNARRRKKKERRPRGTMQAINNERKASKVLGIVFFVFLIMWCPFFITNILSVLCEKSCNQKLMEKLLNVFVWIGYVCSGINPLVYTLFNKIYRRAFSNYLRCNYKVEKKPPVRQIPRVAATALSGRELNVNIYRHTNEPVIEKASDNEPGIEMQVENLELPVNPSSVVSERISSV

[6] = DRUGMATRIX: Purinergic P2X radioligand binding (ligand: [3H] alpha, beta-Methylene-ATP); format: cell membranes, Oryctolagus cuniculus, New Zealand albino, Urinary bladder, Membrane; settings: Not Active = under 50% inhibition at 10 µM

Sequence of C-C chemokine receptor type 5 (P51681 whole entry): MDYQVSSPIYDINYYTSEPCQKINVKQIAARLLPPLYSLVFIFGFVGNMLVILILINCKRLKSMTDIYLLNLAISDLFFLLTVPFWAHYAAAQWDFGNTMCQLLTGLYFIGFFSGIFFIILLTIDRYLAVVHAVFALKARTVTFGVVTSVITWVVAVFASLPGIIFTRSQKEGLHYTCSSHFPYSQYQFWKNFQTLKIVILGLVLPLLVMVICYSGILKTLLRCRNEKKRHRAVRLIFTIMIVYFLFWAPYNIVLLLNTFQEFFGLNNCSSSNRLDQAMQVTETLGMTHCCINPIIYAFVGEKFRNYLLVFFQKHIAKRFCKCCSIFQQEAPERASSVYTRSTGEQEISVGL

Cc1ccccc1N1C(=O)c2cc(S(N)(=O)=O)c(Cl)cc2NC1C (configuration not stated) [METOLAZONE]
Not Active: IC50 [1] | IC50 [2] | IC50 [3] | IC50 [4] | IC50 (Cytochrome P450 2C9) | Ki (Cytochrome P450 2C9) | IC50 [5] | IC50 [6] | Ki [6]

COCCc1ccc(OCC(O)CNC(C)C)cc1 (configuration not stated) [METOPROLOL]
Not Active: IC50 [1] | IC50 [2] | IC50 [3] | IC50 [4] | IC50 (Cytochrome P450 2C9) | Ki (Cytochrome P450 2C9) | IC50 [5] | IC50 [6] | Ki [6]

CCn1cc(C(=O)O)c(=O)c2cc(F)c(N3CCNCC3)cc21 [NORFLOXACIN]
Not Active: IC50 [1] | IC50 [2] | IC50 [3] | IC50 [4] | IC50 (Cytochrome P450 2C9) | Ki (Cytochrome P450 2C9) | IC50 [5] | IC50 [6] | Ki [6]

NC1=NC(=O)C(c2ccccc2)O1 (configuration not stated) [PEMOLINE]
Not Active: IC50 [1] | IC50 [2] | IC50 [3] | IC50 [4] | IC50 (Cytochrome P450 2C9) | Ki (Cytochrome P450 2C9) | IC50 [5] | IC50 [6] | Ki [6]

Nc1nc2c(ncn2CCC(CO)CO)c(=O)[nH]1 [PENCICLOVIR]
Not Active: IC50 [1] | IC50 [2] | IC50 [3] | IC50 [4] | IC50 (Cytochrome P450 2C9) | Ki (Cytochrome P450 2C9) | IC50 [5] | IC50 [6] | Ki [6]

C=C(C)C1(O)OC(=O)C=C1OC (configuration not stated) [PENICILLIC ACID]
Not Active: IC50 [1] | IC50 [2] | IC50 [3] | IC50 [4] | IC50 (Cytochrome P450 2C9) | Ki (Cytochrome P450 2C9) | IC50 [5] | IC50 [6] | Ki [6]

C1CCC(C(CC2CCCCN2)C2CCCCC2)CC1 (configuration not stated) [PERHEXILINE]
Not Active: IC50 [1] | IC50 [2] | IC50 [3] | IC50 [4] | IC50 (Cytochrome P450 2C9) | Ki (Cytochrome P450 2C9) | IC50 [5] | IC50 [6] | Ki [6]

CCOc1ccc(NC(C)=O)cc1 [PHENACETIN]
Not Active: IC50 [1] | IC50 [2] | IC50 [3] | IC50 [4] | IC50 (Cytochrome P450 2C9) | Ki (Cytochrome P450 2C9) | IC50 [5] | IC50 [6] | Ki [6]

CNNCc1ccc(C(=O)NC(C)C)cc1 [PROCARBAZINE]
Not Active: IC50 [1] | IC50 [2] | IC50 [3] | IC50 [4] | IC50 (Cytochrome P450 2C9) | Ki (Cytochrome P450 2C9) | IC50 [5] | IC50 [6] | Ki [6]

CC(O)CO (configuration not stated) [PROPYLENE GLYCOL]
Not Active: IC50 [1] | IC50 [2] | IC50 [3] | IC50 [4] | IC50 (Cytochrome P450 2C9) | Ki (Cytochrome P450 2C9) | IC50 [5] | IC50 [6] | Ki [6]

CADMIUM ACETATE
Not Active: IC50 [1] | Ki [1] | IC50 [2] | Ki [2] | IC50 [3] | Ki [3] | IC50 [4] | Ki [4] | IC50 (Cytochrome P450 2C9) | Ki (Cytochrome P450 2C9) | IC50 [5] | Ki [5] | IC50 [6] | Ki [6]

LEAD (II) ACETATE
Not Active: IC50 [1] | Ki [1] | IC50 [2] | Ki [2] | IC50 [3] | Ki [3] | IC50 [4] | Ki [4] | IC50 (Cytochrome P450 2C9) | Ki (Cytochrome P450 2C9) | IC50 [5] | Ki [5] | IC50 [6] | Ki [6]

LIPOPOLYSACCHARIDE E. COLI O55:B5
Not Active: IC50 [1] | Ki [1] | IC50 [2] | Ki [2] | IC50 [3] | Ki [3] | IC50 [4] | Ki [4] | IC50 (Cytochrome P450 2C9) | Ki (Cytochrome P450 2C9) | IC50 [5] | Ki [5] | IC50 [6] | Ki [6]
